What was measured:
[1] = test system: P. falciparum D6 strain (drug sensitive); test: In vitro antiplasmodial activity, SYBR Green I assay, D6 strain; format: cell-based, Plasmodium falciparum; details: Plasmodium falciparum; D6 strain; 72 h incubation; averages of quadruplicate with (95% confidence intervals); read-out: P. falciparum IC50 values, nM D6
Experimental: (§1) Rationale for Synthesis of a 3-Biaryl Version of ELQ-300. […] All of this information is stored in a database with information relating to chemical structure, physical chemical properties, cross resistance patterns, mammalian cell cytotoxicity, enzyme inhibitor profiles, and synthesis details. […] We employed the SyBr Green assay and the plates were incubated for 72 hours before harvesting^18, 19. […] Stock solutions were freshly prepared in DMSO.
(§2) Plasmodium falciparum Culture. Laboratory strains of P. falciparum were cultured in human erythrocytes by standard methods. The parasites were grown in culture medium with fresh human erythrocytes maintained at 2% hematocrit at 37° C. in low-oxygen conditions (5% O2, 5% CO2, […] balance N2). […] Cultures were maintained at less than 10% parasitemia by transfer of infected cells to fresh erythrocytes and culture medium every 3 or 4 days.
(§3) In vitro drug susceptibility assays. SYBR green I assay. In vitro antiplasmodial activity was assessed using a published SYBR Green I fluorescence-based method. The drugs were added to 96-well plates using 2-fold serial dilutions in complete medium. […] Asynchronous P. falciparum parasites were diluted with uninfected erythrocytes and added to the wells to give a final culture volume of 100 μl at 2% hematocrit and 0.2% parasitemia. […] The parasites were then lysed by adding 100 μl of SYBR green I lysis buffer containing 0.2 μl/ml SYBR green I dye (10,000×) in 20 mM Tris (pH 7.5), 5 mM EDTA, 0.008% (wt/vol) saponin, and 0.08% (vol/vol) Triton X-100. The plates were incubated at room temperature for an hour in the dark. […] If the IC50 value fell outside of the initial tested range then the range was adjusted up or down and the assay was repeated.

[2] = test system: P. falciparum Dd2 strain (multidrug resistant); test: microbe, parasite or virus in culture; format: cell-based, Plasmodium falciparum; details: read-out: P. falciparum IC50 values, nM Dd2; Dd2 strain; 72 h incubation; averages of quadruplicate with (95% confidence intervals)
Experimental: as §1, §2, §3

[3] = test system: P. falciparum Tm90-C2B (atovaquone-resistant clinical isolate); test: In vitro antiplasmodial activity, SYBR Green I assay, Tm90-C2B; format: cell-based; details: Plasmodium falciparum; Tm90-C2B strain; 72 h incubation; averages of quadruplicate with (95% confidence intervals); read-out: P. falciparum IC50 values, nM Tm90-C2B
Experimental: as §1, §2, §3

[4] = test system: P. falciparum D1 clone (ELQ-300 resistant); test: microbe, parasite or virus in culture; format: cell-based; details: Plasmodium falciparum, 72 h, read-out: P. falciparum IC50 values, nM D1
[5] = test system: P. yoelii (Kenya Strain) blood stage infection in mice; test: 4-day Peters test against murine malaria; format: in vivo; details: P. yoelii in mice, oral gavage in PEG400 on Days 1-4; prodrugs dosed on molar equivalency to parent drug
Experimental: On Day 5 a drop of blood was taken from the tail and a blood smear was prepared, fixed with methanol, and stained with Giemsa. The operator then examined the stained smear microscopically to determine percent parasitemia. Dosages of 0.0025, 0.005, 0.01, 0.03, 0.1, 0.3, 1.0 and 10 mg/kg/day were used for the experiment. […] In this model animals were inoculated exactly as for the 4-day test on Day 0 however drug was administered only on Day 1 while the operator made smears on Day 5 and again weekly thereafter for animals that remained aparasitemic. Animals that remained aparasitemic out to […] were scored as cures.
In Vivo Efficacy against Murine Malaria. The P. yoelii 4-day test monitors suppression of patent infection in female CF1 mice. The test began with the inoculation (iv) of parasitized erythrocytes (3.5×10^4/P. yoelli) (from a donor animal) on the first day of the experiment (D0). […] Initially the 3-biaryl-ELQs were tested at doses of 0.0025, 0.005, 0.01, 0.03, 0.1, 0.3, 1.0 and 10 mg/kg/day, including a vehicle-only (PEG400) control. After completion of drug treatment, a blood sample was collected (by pricking the tail vein) for determination of parasite burden beginning on the day after the final dose (D5). Percent parasitemia is assessed by direct microscopic analysis of Giemsa-stained blood smears. […] Animals with observable parasitemia following the experiment were euthanized; animals cleared of parasites from the bloodstream were observed daily with assessment of parasitemia performed weekly until day 30, at which point the animal(s) were scored as cured of infection. […] Non-linear regression analysis is used for objective determination of ED50's and ED90's from the accumulated data as well as the Non-Recrudescence Dose (NRD). The 4-day test protocol was reviewed and approved by the local IACUC board at the Portland VA Medical Center. Experiments were performed with 4 mice per group to ensure statistical accuracy.

[6] = test system: P. yoelii blood stage infection in mice; test: In vivo single-dose cure against murine malaria; details: lowest single dose that cures all 4 mice; P. yoelii, dose on Day 1; prodrugs dosed on molar equivalency to parent drug
Experimental: Animals that remained aparasitemic out to […] were scored as cures.
In Vivo Single-Dose Efficacy against Murine Malaria. The effectiveness of selected 3-biarylELQs and prodrugs was assessed vs. the blood stage infection for single dose cures. Mice are infected iv with 3.5×10^4 P. yoelii infected RBCs as described for the 4-day test above. Drug administration occurred on the day after inoculation (Day 1). Test agents were dissolved in PEG-400 and administered ig once. On the 5th day blood films were prepared and % parasitemia was assessed. Animals remaining parasite-free for 30 days after drug administration were considered cured. The initial dosing range was: 0.5, 1, 2.5, 5, 10 mg/kg, including a control. Experiments were performed with 4 mice per group to ensure statistical accuracy. The reported parameter for these studies is the lowest single dose that provides a cure to all 4 animals in the group.

[7] = test system: P. falciparum cytochrome bc1 complex; test: biochemical; details: based on enzyme inhibitory activity
Excerpt: Isolation of Plasmodium falciparum Mitochondria and Ubiquinol-Cytochrome c Oxidoreductase Assay.

[8] = HepG2 cytotoxicity, TiterGlo ATP luminescence, galactose medium; format: cell-based, human; details: human
Experimental: […]. Of course, enhanced potency is desirable only if unaccompanied by enhanced toxicity. […] […]. The incubation period for these experiments was 48 hours.

[9] = molecular target: T1, P. falciparum cytochrome bc1 complex (Plasmodium falciparum, UniProt Q02768); details: data taken from Nilsen et al., 2013 (a) or Frueh et al., 2017 (b); cited from earlier work
T1 construct: endogenous in cells
T1 sequence (Q02768 1-376): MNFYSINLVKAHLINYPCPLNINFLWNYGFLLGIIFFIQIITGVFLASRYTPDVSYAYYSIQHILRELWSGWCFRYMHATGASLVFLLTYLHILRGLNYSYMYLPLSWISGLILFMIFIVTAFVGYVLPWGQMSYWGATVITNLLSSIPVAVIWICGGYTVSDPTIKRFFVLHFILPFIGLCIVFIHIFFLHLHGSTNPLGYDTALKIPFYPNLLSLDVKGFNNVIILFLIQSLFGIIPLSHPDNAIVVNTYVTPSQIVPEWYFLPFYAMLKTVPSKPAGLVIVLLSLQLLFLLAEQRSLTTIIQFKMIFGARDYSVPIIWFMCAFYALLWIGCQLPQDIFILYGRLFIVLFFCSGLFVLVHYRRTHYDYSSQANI

[10] = molecular target: T2, human liver cytochrome bc1 complex (Homo sapiens, UniProt P00156); details: data taken from Nilsen et al., 2013 (a) or Frueh et al., 2017 (b); cited from earlier work
T2 construct: human host cytochrome bc1 complex isolated from human liver tissue; from tissue; host or cells: human liver tissue

For `COc1cc2[nH]c(C)c(-c3ccc(Oc4ccc(OC(F)(F)F)cc4)cc3)c(=O)c2cc1Cl` [ELQ-300, reference compound], the IC50 [1] was 3.3 nM, the IC50 [2] was 4.2 nM and the IC50 [3] was 2.5 nM. For the same compound, the IC50 [4] was 168 nM, the “4-day Peters Test Results ED90” value [5] was 0.06 mg/kg/day and the “4-day Peters Test Results NRD (non-recrudescence dose)” value [5] was 1.0 mg/kg/day. The Single dose cure [6] was >25 mg/kg/day, the “Selectivity Index Human/Pf cyt. bc1” value [7] was ≥18,000 and the EC50 at 48 h [8] was > 10 µM. The IC50 [9] was 0.56 nM and the IC50 [10] was > 10 µM.

— patent publication US20250353828A1, “SUBSTITUTED BIARYL ENDOCHIN-LIKE QUINOLONES WITH ENHANCED ANTIPARASITIC ACTIVITY” (Oregon Health & Science University, priority 2022, published 2025)
